Like-named read-outs stand apart in the source and are kept apart here. Marks after values point to notes of the source that are not given here.
Experiments:
[1] = Acute toxicity (DL50) in the rat; settings: in vivo
From the text: (§1) Dans le tableau I sont reportés, pour cinq composés représentatifs utiles comme ingrédients actifs dans les compositions selon l'invention: • - la toxicité aiguë, exprimée comme DL50 chez le rat par voie orale ou par voie intrapéritonéale (donnée A); • - l'activité anorexigène, exprimée comme dose orale ou intrapéritonéale inhibant de 50% la prise de nourriture (DE50, donnée B); • - le rapport entre la toxicité aiguë et l'activité anorexigène qui exprime l'index thérapeutique lié à la toxicité aiguë (donnée A/B).

[2] = tested on: prise de nourriture chez le rat; assay: Anorectic activity, food intake method in the rat; type: in vivo; settings: for A/B (index thérapeutique lié à la toxicité aiguë): DL50/DE50; for ED50: 1 h, rat, 30 minutes before food, food consumed in first hour, read-out: B DE50 (dose inhibant de 50% la prise de nourriture)
Protocol: L'activité anorexigène a été évaluée par la méthode de la prise de nourriture chez le rat. On a utilisé des rats femelles de 200 g entrainés pendant 10 jours à manger durant une période de 4 heures et sélectionnés au huitième jour. Au bout du dixième jour, les animaux randomisés ont été divisés en un "groupe contrôle", traité par le seul véhicule, et en plusieurs "groupes traités". Le traitement a été effectué par voie orale et/ou intrapéritonéale 30 minutes avant la présentation de la nourriture et, ensuite, on a mesuré la quantité de nourriture consommée au cours de la première heure.
as §1

[3] = tested on: taux cérébraux de sérotonine; assay: Brain serotonin levels after administration (Curzon and Green method); type: in vivo
From the text: En particulier, les composés utilisés comme principes actifs des compositions pharmaceutiques de la présente invention, in vivo, ne provoquent pas de déplétion de sérotonine au niveau central. Le tableau II ci-dessous résume les taux cérébraux de sérotonine, en pourcentage par rapport aux contrôles, après administration orale ou intrapéritonéale de quatre ingrédients actifs des compositions pharmaceutiques de la présente invention. La détermination des taux cérébraux, selon Curzon et Green (Brit. J. Pharmacol. 39, 653, 1970), a été effectuée une heure et/ou deux heures après l'administration. La fenfluramine a été utilisée comme produit de référence.

[4] = target: récepteurs post-synaptiques de la sérotonine; assay: 3H-serotonin binding to rat cortex membranes (Peroutka and Snyder method); settings: fixed concentration of 3H-serotonin
From the text: L'affinité des composés de la présente invention pour les récepteurs post-synaptiques de la' sérotonine a été déterminée selon la méthode de Peroutka et Snyder (Molec. Pharmacol. 1979, 16, 687-699) qui consiste à incuber des membranes de cortex de rat avec une concentration fixée de ^3H-sérotonine en présence de différentes concentrations de produit. Le tableau III montre la concentration molare de trois ingrédients actifs représentatifs de la présente invention qui donne une inhibition de 50% du binding spécifique au récepteur sérotoninergique (IC50), à savoir la mesure de la capacité du produit d'intéragir avec la ^3H-sérotonine dans le binding à son récepteur. La fenfluramine et la 3-(3-trifluorométhylphényl)-1-propyl-1,2,5,6-tétrahydropyridine (Composé A), décrite par le brevet allemand 2 904 826, ont été utilisées comme composés de référence.

| SMILES | LD50 ([1]; ip) | LD50 ([1]; po, os) | A/B (index thérapeutique lié à la toxicité aiguë) ([2]; i.p.) | ED50 ([2]; ip, i.p.) | A/B (index thérapeutique lié à la toxicité aiguë) ([2]; os) | ED50 ([2]; po, os) | taux cérébraux de sérotonine % par rapport aux contrôles ([3]; i.p., 15 mg/kg, 1 h.) | taux cérébraux de sérotonine % par rapport aux contrôles ([3]; i.p., 15 mg/kg, 2 h.) | taux cérébraux de sérotonine % par rapport aux contrôles ([3]; i.p., 30 mg/kg, 2 h.) | taux cérébraux de sérotonine % par rapport aux contrôles ([3]; os, 15 mg/kg, 2 h.) | taux cérébraux de sérotonine % par rapport aux contrôles ([3]; os, 7,5 mg/kg, 2 h.) | taux cérébraux de sérotonine (result in words) ([3]; at anorectic doses) | taux cérébraux de sérotonine % par rapport aux contrôles ([3]; i.p., 5,0 mg/kg, 1 h.) | taux cérébraux de sérotonine % par rapport aux contrôles ([3]; i.p., 7,5 mg/kg, 1 h.) | taux cérébraux de sérotonine % par rapport aux contrôles ([3]; i.p., 7,5 mg/kg, 2 h.) | IC50 [4] |
| --- | --- | --- | --- | --- | --- | --- | --- | --- | --- | --- | --- | --- | --- | --- | --- | --- |
| FC(F)(F)c1cccc(C2=CCN(Cc3ccccc3)CC2)c1 [CM 57451, chlorhydratede 4-(3-trifluorométhylphényl)-1-benzyl-1,2,3,6-tétrahydropyridine] | 220 mg/kg | 600 mg/kg | 14,6 | 15 mg/kg | 33,3 | 18 mg/kg | 121,2% | 112,0% | 119,0% | – | – | – | – | – | – | – |
| CCCCCN1CC=C(c2cccc(C(F)(F)F)c2)CC1 [CM 57756, chlorhydratede 4-(3-trifluorométhylphényl)-1-n-pentyl-1,2,3,6-tétrahydropyridine] | – | 311 mg/kg | – | – | 35,4 | 8.8 mg/kg | – | – | – | 125 * % | 138 ** % | – | – | – | – | – |
| CCNC(C)Cc1cccc(C(F)(F)F)c1 (stereo not drawn) [fenfluramine, reference compound] | 85.6 mg/kg | 100 mg/kg | 15,8 | 5.4 mg/kg | 25,1 | 4 mg/kg | – | – | – | – | – | réduction importante de sérotonine cérébrale | 82,9 * % | 81,6 * % | 53,1 ** % | > 10 µM |
| FC(F)(F)c1cccc(C2=CCNCC2)c1 [CM 57235, chlorhydratede 4-(3-triflüorométhylphényl)-1,2,3,6-tétrahydropyridine] | 94.6 mg/kg | 346 mg/kg | 11,2 | 8.4 mg/kg | 22 | 15.7 mg/kg | 106% | 102% | – | – | – | – | – | – | 112,0% | – |
| CCCN1CC=C(c2cccc(C(F)(F)F)c2)CC1 [CM 57545, chlorhydratede 4-(3-trifluorométhylphényl)-1-propyl-1,2,3,6-tétrahydropyridine] | 124 mg/kg | 178 mg/kg | 17,7 | 7 mg/kg | 22,2 | 8 mg/kg | – | 112% | – | – | – | – | – | – | 103% | – |
| CN1CC=C(c2cccc(C(F)(F)F)c2)CC1 [CM 57548, chlorhydratede 4-(3-trifluorométhylphényl)-1-méthyl-1,2,3,6-tétrahydropyridine] | 186 mg/kg | – | 15,2 | 12.2 mg/kg | – | – | – | – | – | – | – | – | – | – | – | – |

Source: patent publication EP0060179A1, “Pharmaceutical compositions having anorectic activity” (SANOFI S.A., priority 1981, dated 1982)
